We go through three compounds from ChEMBL document CHEMBL1151016, “Synthesis and evaluation of 3-deoxy-D-manno-2-octulosonate-8-phosphate (KDO8P) synthase inhibitors” (Bioorg Med Chem Lett, 1997).

This experiment is described as follows: The compound was tested for inhibitory activity against KDO 8-P synthase by using a KDO 8-P synthase enzymatic assay.
For the compound `O=C(O)C1=C[C@H](OCC(O)P(=O)(O)O)[C@H](O)[C@H](O)C1` (stereo partly drawn), it took 3.8 mM to reach half-maximal inhibition (IC50).

In turn, `O=P(O)(O)OC[C@H]1O[C@H](O)[C@H](O)[C@@H]1O` displayed an IC50 of 4.3 mM.

`O=C(O)C1=C[C@H](OCCP(=O)(O)O)[C@H](O)[C@H](O)C1` displayed an IC50 above 25 mM.
